System: E. coli AR-0055
Assay: Urinary tract infection model
Assay type: in vivo, mouse
Settings: 33.3 mg/kg IV three times a day, 168 h postinfection
Method: Urinary tract infection model
The protocol to assess fabimycin’s efficacy in a urinary tract infection was approved by the IACUC (protocol number:
IM011-12282020). In this study specific pathogen-free C3H/HeJ (Tlr4Lps-d) mice that were 7-8 weeks were used and provided with 5% glucose for 6 days prior to infection and for the duration of the experiment.12, 13 On day 0, mice were infected with E. coli AR-0055 (1.38 * 10^9 CFU/mouse, transurethral) while under pentobarbital anesthesia (50 mg/kg, IP). Treatment was initiated 96 hours post-infection with test articles. Fabimycin was formulated in 17% Cremophor EL/3% SBE-β-CD and administered intravenously while the control, colistin, was formulated in 0.9% NaCl and administered subcutaneously. Doses were administered once, twice, or three times daily for 3 consecutive days with animal sacrifice and burden enumeration at 168 hours post-infection. Tissues were collected and pathogen burden evaluated by dilution plating technique on nutrient agar plates.

Cc1c(CN(C)C(=O)/C=C/c2cnc3c(c2)CC[C@H](N)C(=O)N3)oc2ccccc12 [fabimycin]
log10 reduction in bacterial load relative to the vehicle (bladder): 2.8 log10
log10 reduction in bacterial load relative to the vehicle (kidney): 1.9 log10
log10 reduction in bacterial load relative to the vehicle (liver): 2.9 log10
log10 reduction in bacterial load relative to the vehicle (spleen): 3.0 log10

Reference: publication PMC9413440, “An Iterative Approach Guides Discovery of the FabI Inhibitor Fabimycin, a Late-Stage Antibiotic Candidate with In Vivo Efficacy against Drug-Resistant Gram-Negative Infections” (ACS Central Science, 2022)
